# PubChem BioAssay AID328 (DTP/NCI, 2004)
# Where “and” joins values, the source holds several entries; their conditions need not be identical. Equal values may be shown once. Inconclusive results and toxic doses are left out.
# Test system: BDF1 mice, P388 leukemia ip, median survival T/C
# Experiment: NCI In Vivo Anticancer Drug Screen. Data for tumor model P388 Leukemia (intraperitoneal) in B6D2F1 (BDF1) mice
# Conditions: endpoint: median survival time, higher = longer survival
# Method in brief: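 Compound-treated tumour-bearing mice were compared with vehicle-treated controls. Survival was recorded, and the value is the treated-group measurement divided by the control-group measurement (T/C).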
# [1] = dose: 100.0 mg/kg/injection, schedule: Q04DX003 (ip), vehicle: saline with Tween-80
# [2] = dose: 200.0 mg/kg/injection, schedule: Q04DX003 (ip), vehicle: saline with Tween-80
# [3] = dose: 400.0 mg/kg/injection, schedule: Q04DX003 (ip), vehicle: saline with Tween-80
# [4] = dose: 50.0 mg/kg/injection, schedule: Q01DX009 (ip), vehicle: Klucel (hydroxypropylcellulose) (HPC)
# [5] = dose: 100.0 mg/kg/injection, schedule: Q01DX009 (ip), vehicle: saline
# [6] = dose: 100.0 mg/kg/injection, schedule: Q04DX003 (ip), vehicle: saline
# [7] = dose: 200.0 mg/kg/injection, schedule: Q01DX009 (ip), vehicle: saline
# [8] = dose: 200.0 mg/kg/injection, schedule: Q04DX003 (ip), vehicle: saline
# [9] = dose: 400.0 mg/kg/injection, schedule: Q01DX009 (ip), vehicle: saline
# [10] = dose: 400.0 mg/kg/injection, schedule: Q04DX003 (ip), vehicle: saline
# [11] = dose: 50.0 mg/kg/injection, schedule: Q01DX009 (ip), vehicle: saline with Tween-80
# [12] = dose: 100.0 mg/kg/injection, schedule: Q01DX009 (ip), vehicle: saline with Tween-80
# [13] = dose: 200.0 mg/kg/injection, schedule: Q01DX009 (ip), vehicle: saline with Tween-80
# [14] = dose: 25.0 mg/kg/injection, schedule: Q04DX003 (ip), vehicle: saline with Tween-80
# [15] = dose: 50.0 mg/kg/injection, schedule: Q01DX009 (ip), vehicle: saline
# [16] = dose: 12.5 mg/kg/injection, schedule: Q01DX009 (ip), vehicle: saline
# [17] = dose: 25.0 mg/kg/injection, schedule: Q01DX009 (ip), vehicle: saline
# [18] = dose: 4.0 mg/kg/injection, schedule: Q04DX003 (ip), vehicle: saline with Tween-80
# [19] = dose: 400.0 mg/kg/injection, schedule: Q01DX009 (ip), vehicle: saline with Tween-80
# [20] = dose: 6.25 mg/kg/injection, schedule: Q01DX009 (ip), vehicle: saline with Tween-80
# [21] = dose: 12.5 mg/kg/injection, schedule: Q01DX009 (ip), vehicle: saline with Tween-80
# [22] = dose: 16.5 mg/kg/injection, schedule: Q04DX003 (ip), vehicle: saline with Tween-80
# [23] = dose: 37.5 mg/kg/injection, schedule: Q04DX003 (ip), vehicle: saline with Tween-80
# [24] = dose: 25.0 mg/kg/injection, schedule: Q01DX009 (ip), vehicle: saline with Tween-80
smiles,measurement,setting,value
CN(C)C(=S)SC(=S)N(C)C,T/C,"dose: 25.0 mg/kg/injection, schedule: Q04DX003 (ip), vehicle: Klucel (hydroxypropylcellulose) (HPC)",100 % of control
same,T/C,"dose: 50.0 mg/kg/injection, schedule: Q04DX003 (ip), vehicle: Klucel (hydroxypropylcellulose) (HPC)",95 % of control
same,T/C,"dose: 100.0 mg/kg/injection, schedule: Q01DX001 (ip), vehicle: Klucel (hydroxypropylcellulose) (HPC)",100 % of control and 104 % of control
same,T/C,"dose: 100.0 mg/kg/injection, schedule: Q04DX003 (ip), vehicle: Klucel (hydroxypropylcellulose) (HPC)",109 % of control
same,T/C,"dose: 200.0 mg/kg/injection, schedule: Q01DX001 (ip), vehicle: Klucel (hydroxypropylcellulose) (HPC)",100 % of control
same,T/C,"dose: 400.0 mg/kg/injection, schedule: Q01DX001 (ip), vehicle: Klucel (hydroxypropylcellulose) (HPC)",104 % of control and 108 % of control
CCCNC(=O)Nc1ccc(C)cc1C,T/C,[1],100 % of control
same,T/C,[2],95 % of control
same,T/C,[3],100 % of control
O=C(Nc1cccc(C(=O)Nc2ccc(C3=NCCN3)cc2)c1)c1ccc(C2=NCCN2)cc1,T/C,"dose: 16.5 mg/kg/injection, schedule: Q01DX009 (ip), vehicle: saline",122 % of control
CN(C)P(=O)(N(C)C)N(C)C (tested in a mixture with another compound),T/C,[4],98 % of control
same,T/C,"dose: 100.0 mg/kg/injection, schedule: Q01DX009 (ip), vehicle: Klucel (hydroxypropylcellulose) (HPC)",105 % of control
same,T/C,"dose: 200.0 mg/kg/injection, schedule: Q01DX009 (ip), vehicle: Klucel (hydroxypropylcellulose) (HPC)",105 % of control
O=c1[nH]cc[nH]1,T/C,[5],95 % of control
same,T/C,[6],100 % of control
same,T/C,[7],114 % of control
same,T/C,[8],108 % of control
same,T/C,"dose: 264.0 mg/kg/injection, schedule: Q01DX009 (ip), vehicle: saline",122 % of control
same,T/C,[9],122 % of control
same,T/C,[10],104 % of control
CC1(O)c2cccc(Sc3ccccc3)c2C(C)(O)c2c(Sc3ccccc3)cccc21 (configuration not stated),T/C,[11],107 % of control
same,T/C,[12],99 % of control
same,T/C,[13],98 % of control
CNC(=O)NNc1ccccc1,T/C,"dose: 200.0 mg/kg/injection, schedule: Q04DX003 (ip), vehicle: Klucel (hydroxypropylcellulose) (HPC)",115 % of control
same,T/C,"dose: 400.0 mg/kg/injection, schedule: Q04DX003 (ip), vehicle: Klucel (hydroxypropylcellulose) (HPC)",115 % of control
CC(=O)CC(C)=O.CC(=O)CC(C)=O.CC(C)c1ncc[nH]1.O=N[O-].[Co],T/C,"dose: 100.0 mg/kg/injection, schedule: Q04DX002 (ip), vehicle: saline with Tween-80",105 % of control
same,T/C,"dose: 200.0 mg/kg/injection, schedule: Q04DX002 (ip), vehicle: saline with Tween-80",107 % of control
COc1ccccc1OC(=O)Nc1ccc(C)c([N+](=O)[O-])c1,T/C,[14],100 % of control
same,T/C,"dose: 50.0 mg/kg/injection, schedule: Q04DX003 (ip), vehicle: saline with Tween-80",104 % of control
same,T/C,[1],100 % of control
O=C(N[C@@H](c1ccccc1)[C@H](N=Cc1ccccc1)c1ccccc1)c1ccccc1,T/C,[15],102 % of control
same,T/C,"dose: 50.0 mg/kg/injection, schedule: Q04DX003 (ip), vehicle: saline",91 % of control
same,T/C,[5],100 % of control
same,T/C,[6],92 % of control
same,T/C,[7],91 % of control
same,T/C,[8],91 % of control
same,T/C,[9],94 % of control
same,T/C,[10],90 % of control
c1ccc(-c2nn(-c3ccccc3)[n+](-c3cccc4ccccc34)n2)cc1,T/C,"dose: 2.0 mg/kg/injection, schedule: Q01DX009 (ip), vehicle: saline with Tween-80",103 % of control
same,T/C,"dose: 4.0 mg/kg/injection, schedule: Q01DX009 (ip), vehicle: saline with Tween-80",112 % of control
CC(C)=CC(=O)OC1C2C(C)C(=O)OC2C(O)C(C)C2C=CC(=O)C21C (configuration not stated),T/C,"dose: 3.12 mg/kg/injection, schedule: Q01DX009 (ip), vehicle: saline",94 % of control
same,T/C,"dose: 6.25 mg/kg/injection, schedule: Q01DX009 (ip), vehicle: saline",101 % of control
same,T/C,[16],103 % of control
same,T/C,[17],120 % of control
same,T/C,[4],118 % of control
same,T/C,[15],120 % of control
COc1cccc2c1CCC1=C2CC=C2CC3(CCC21C)OCCO3 (configuration not stated),T/C,"dose: 5.0 mg/kg/injection, schedule: Q04DX003 (sc), vehicle: steriod suspending solution",109 % of control
same,T/C,"dose: 10.0 mg/kg/injection, schedule: Q04DX003 (sc), vehicle: steriod suspending solution",104 % of control
same,T/C,"dose: 20.0 mg/kg/injection, schedule: Q04DX003 (sc), vehicle: steriod suspending solution",118 % of control
Cc1cc(O)c2c(c1O)C(=O)C13C(=C2O)C(=O)C2C(O)C1C1C(O)C3C(=O)C3=C(O)c4c(O)cc(C)c(O)c4C(=O)C321 (configuration not stated),T/C,"dose: 2.6 mg/kg/injection, schedule: Q04DX003 (ip), vehicle: saline with Tween-80",113 % of control
same,T/C,[18],118 % of control
CCOC(=O)c1ccc(N)c(C(O)(C(F)(F)F)C(F)(F)F)c1,T/C,[12],90 % of control
same,T/C,[13],100 % of control
same,T/C,[19],104 % of control
CCCCCCCCOc1cc(OCCCCCCCC)c2c(ccc3ccccc32)c1,T/C,[1],97 % of control
same,T/C,[2],88 % of control
same,T/C,[3],94 % of control
CCCCC(CC)COC(OCC(CC)CCCC)C(OCC(CC)CCCC)OCC(CC)CCCC (configuration not stated),T/C,[12],100 % of control
same,T/C,[13],100 % of control
same,T/C,[19],90 % of control
O=C(C=C(C(F)(F)F)C(F)(F)F)c1cc(Cl)ccc1Cl,T/C,"dose: 3.12 mg/kg/injection, schedule: Q01DX009 (ip), vehicle: saline with Tween-80",95 % of control
same,T/C,[20],95 % of control
same,T/C,"dose: 7.0 mg/kg/injection, schedule: Q04DX003 (ip), vehicle: saline with Tween-80",112 % of control
same,T/C,"dose: 11.0 mg/kg/injection, schedule: Q04DX003 (ip), vehicle: saline with Tween-80",120 % of control
same,T/C,[21],103 % of control and 108 % of control
same,T/C,"dose: 12.5 mg/kg/injection, schedule: Q04DX003 (ip), vehicle: saline with Tween-80",115 % of control
same,T/C,[22],120 % of control
same,T/C,[14],113 % of control
same,T/C,[23],121 % of control
O=NN(CCF)C(=O)NC1CCCCC1,T/C,"dose: 1.0 mg/kg/injection, schedule: Q04DX003 (ip), vehicle: saline with Tween-80",90 % of control
same,T/C,"dose: 2.0 mg/kg/injection, schedule: Q04DX003 (ip), vehicle: saline with Tween-80",105 % of control
same,T/C,[18],120 % of control
same,T/C,[20],217 % of control
same,T/C,[21],260 % of control
same,T/C,[22],272 % of control
same,T/C,[24],121 % of control
same,T/C,[14],95 % of control
same,T/C,[23],95 % of control
O=C1c2c(Cl)c(Cl)c(Cl)c(Cl)c2C(=O)N1c1ccc(-c2ccccc2)cc1,T/C,"dose: 43.7 mg/kg/injection, schedule: Q01DX009 (ip), vehicle: saline with Tween-80",101 % of control
same,T/C,"dose: 87.5 mg/kg/injection, schedule: Q01DX009 (ip), vehicle: saline with Tween-80",101 % of control
same,T/C,"dose: 175.0 mg/kg/injection, schedule: Q01DX009 (ip), vehicle: saline with Tween-80",99 % of control
NNc1cccc(C(F)(F)F)c1,T/C,[16],106 % of control
same,T/C,[17],104 % of control
same,T/C,[15],117 % of control
Cc1cc(-c2ccc(Br)cc2)[n+](C)n1C,T/C,[21],102 % of control
same,T/C,[24],107 % of control
same,T/C,[11],111 % of control
